From the supplement of paper PMC11061612

Legend:
[1] = system: WSU-NHL (B-Cell Non-Hodgkin's Lymphoma); assay: Bliss excess, mean over the matrix (fraction); higher = more synergy
Summary of the method: (§1)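 After 24 hours at 37°C and 5% CO2 in 1536-well plates, cells in DMEM/F12 or RPMI plus 10% FBS received two-drug dose matrices for 72 hours. Viability came from CellTiter-Glo 2.0 luminescence and was scaled as inhibition, anchored at 0 by vehicle wells and at 1 by blank wells. Combination Emax is taken as the second-highest inhibition in the matrix, and Bliss excess as the observed combination effect less EA + EB − EA·EB, with EA and EB the single-agent effects.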

[2] = system: SW1710 (Bladder Carcinoma); assay: as above
Summary of the method: as §1

[3] = system: CAL-72 (Osteosarcoma); assay: as above
Summary of the method: as §1

[4] = system: OVCAR-5 (Ovarian Carcinoma); assay: as above
Summary of the method: as §1

[5] = system: MPP-89 (Mesothelioma); assay: as above
Summary of the method: as §1

[6] = system: SNU-16 (Gastric Carcinoma); assay: as above
Summary of the method: as §1

[7] = system: KS-1 (Glioblastoma); assay: as above
Summary of the method: as §1

[8] = system: TGBC1TKB (Biliary Tract Carcinoma); assay: as above
Summary of the method: as §1

[9] = system: LOXIMVI (Melanoma); assay: as above
Summary of the method: as §1

[10] = system: LS-123 (Colorectal Carcinoma); assay: as above
Summary of the method: as §1

[11] = system: BE-13 (T-Lymphoblastic Leukemia); assay: as above
Summary of the method: as §1

[12] = system: KYAE-1 (Esophageal Adenocarcinoma); assay: as above
Summary of the method: as §1

[13] = system: NCI-H524 (Small Cell Lung Carcinoma); assay: as above
Summary of the method: as §1

[14] = system: ESS-1 (Other Solid Carcinomas); assay: as above
Summary of the method: as §1

[15] = system: YAPC (Pancreatic Carcinoma); assay: as above
Summary of the method: as §1

[16] = system: A673 (Ewing's Sarcoma); assay: as above
Summary of the method: as §1

[17] = system: SNU-449 (Hepatocellular Carcinoma); assay: as above
Summary of the method: as §1

[18] = system: EW-11 (Ewing's Sarcoma); assay: as above
Summary of the method: as §1

[19] = system: GAMG (Glioblastoma); assay: as above
Summary of the method: as §1

[20] = system: HH (T-Cell Non-Hodgkin's Lymphoma); assay: as above
Summary of the method: as §1

[21] = system: LNZTA3WT4 (Low Grade Glioma); assay: as above
Summary of the method: as §1

[22] = system: SAS (Oral Cavity Carcinoma); assay: as above
Summary of the method: as §1

[23] = system: HuCCT1 (Biliary Tract Carcinoma); assay: as above
Summary of the method: as §1

[24] = system: WSU-NHL (B-Cell Non-Hodgkin's Lymphoma); assay: combination Emax (second highest fraction inhibited in the dose matrix, 72 h); higher = more inhibition; extreme values may be limits of the assay
Summary of the method: as §1

[25] = system: SW1710 (Bladder Carcinoma); assay: as above
Summary of the method: as §1

[26] = system: CAL-72 (Osteosarcoma); assay: as above
Summary of the method: as §1

[27] = system: OVCAR-5 (Ovarian Carcinoma); assay: as above
Summary of the method: as §1

[28] = system: MPP-89 (Mesothelioma); assay: as above
Summary of the method: as §1

[29] = system: SNU-16 (Gastric Carcinoma); assay: as above
Summary of the method: as §1

[30] = system: KS-1 (Glioblastoma); assay: as above
Summary of the method: as §1

[31] = system: TGBC1TKB (Biliary Tract Carcinoma); assay: as above
Summary of the method: as §1

[32] = system: LOXIMVI (Melanoma); assay: as above
Summary of the method: as §1

[33] = system: LS-123 (Colorectal Carcinoma); assay: as above
Summary of the method: as §1

[34] = system: BE-13 (T-Lymphoblastic Leukemia); assay: as above
Summary of the method: as §1

[35] = system: KYAE-1 (Esophageal Adenocarcinoma); assay: as above
Summary of the method: as §1

[36] = system: NCI-H524 (Small Cell Lung Carcinoma); assay: as above
Summary of the method: as §1

[37] = system: ESS-1 (Other Solid Carcinomas); assay: as above
Summary of the method: as §1

[38] = system: YAPC (Pancreatic Carcinoma); assay: as above
Summary of the method: as §1

[39] = system: A673 (Ewing's Sarcoma); assay: as above
Summary of the method: as §1

[40] = system: SNU-449 (Hepatocellular Carcinoma); assay: as above
Summary of the method: as §1

[41] = system: EW-11 (Ewing's Sarcoma); assay: as above
Summary of the method: as §1

[42] = system: GAMG (Glioblastoma); assay: as above
Summary of the method: as §1

[43] = system: HH (T-Cell Non-Hodgkin's Lymphoma); assay: as above
Summary of the method: as §1

[44] = system: LNZTA3WT4 (Low Grade Glioma); assay: as above
Summary of the method: as §1

[45] = system: SAS (Oral Cavity Carcinoma); assay: as above
Summary of the method: as §1

[46] = system: HuCCT1 (Biliary Tract Carcinoma); assay: as above
Summary of the method: as §1
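Wherever Bliss excess, mean over the matrix is given: after 72 h of two-drug dosing.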

Cc1c2c(nn1C)CSCc1cc(n(C)n1)CSc1cc(c3ccccc3c1)OCCCc1c(C(=O)O)n(C)c3c-2c(Cl)ccc13 [AZD5991] + Nc1ccn([C@@H]2O[C@H](CO)[C@@H](O)C2(F)F)c(=O)n1 [Gemcitabine] (first compound max 1 µM, 7x7, partner max 0.3 µM) was tested, and the Bliss excess [1] was -0.0514, the Bliss excess [2] was -0.0571 and the Bliss excess [3] was 0.0305. For the same compound, the Bliss excess [4] was -0.0442, the Bliss excess [5] was -0.0354 and the Bliss excess [6] was 0.0183. It also gave a Bliss excess [7] of -0.0354, a Bliss excess [8] of 0.0006 and a Bliss excess [9] of -0.0338. The Bliss excess [10] was -0.0176, the Bliss excess [11] was -0.0088 and the Bliss excess [12] was 0.0034. The Bliss excess [13] was -0.0212, the Bliss excess [14] was -0.0338 and the Bliss excess [15] was -0.0165. It also gave a Bliss excess [16] of -0.021, a Bliss excess [17] of -0.0021 and a Bliss excess [18] of -0.0422. It also gave a Bliss excess [19] of -0.0026, a Bliss excess [20] of -0.0369 and a Bliss excess [21] of 0.0625. The Bliss excess [22] was -0.0223, the Bliss excess [23] was -0.0171 and the “combination Emax” value [24] was 0.967. The “combination Emax” value [25] was 0.397, the “combination Emax” value [26] was 0.613 and the “combination Emax” value [27] was 0.422. For the same compound, the “combination Emax” value [28] was 0.428, the “combination Emax” value [29] was 1 and the “combination Emax” value [30] was 0.288. The “combination Emax” value [31] was 0.255, the “combination Emax” value [32] was 0.835 and the “combination Emax” value [33] was 0.404. The “combination Emax” value [34] was 0.923, the “combination Emax” value [35] was 0.127 and the “combination Emax” value [36] was 0.788. For the same compound, the “combination Emax” value [37] was 0.961, the “combination Emax” value [38] was 0.575 and the “combination Emax” value [39] was 0.893. The “combination Emax” value [40] was 0.316, the “combination Emax” value [41] was 0.868 and the “combination Emax” value [42] was 0.662. The “combination Emax” value [43] was 0.879, the “combination Emax” value [44] was 0.633 and the “combination Emax” value [45] was 0.924. The “combination Emax” value [46] was 0.506.

C[C@@H]1COCCN1c1cc(C2([S@](C)(=N)=O)CC2)nc(-c2ccnc3[nH]ccc23)n1 [AZD6738] + C1CC(C1)(C(=O)[O-])C(=O)[O-].N.N.[Pt+2] [Carboplatin] (first compound max 10 µM, 7x7, partner max 10 µM) was tested, and the Bliss excess [1] was -0.054, the Bliss excess [2] was -0.0642 and the Bliss excess [3] was -0.063. For the same compound, the Bliss excess [4] was -0.0347, the Bliss excess [5] was -0.035 and the Bliss excess [6] was 0.0045. The Bliss excess [7] was -0.0536, the Bliss excess [8] was -0.0375 and the Bliss excess [9] was -0.0438. It also gave a Bliss excess [10] of -0.0239, a Bliss excess [11] of -0.0436 and a Bliss excess [12] of -0.015. For the same compound, the Bliss excess [13] was -0.0512, the Bliss excess [14] was 0.0196 and the Bliss excess [15] was -0.0227. For the same compound, the Bliss excess [16] was 0.0216, the Bliss excess [17] was -0.0341 and the Bliss excess [18] was -0.041. It also gave a Bliss excess [19] of -0.0162, a Bliss excess [20] of -0.0016 and a Bliss excess [21] of -0.0459. The Bliss excess [22] was -0.0459, the Bliss excess [23] was -0.0477 and the “combination Emax” value [24] was 0.849. The “combination Emax” value [25] was 0.429, the “combination Emax” value [26] was 0.718 and the “combination Emax” value [27] was 0.75. For the same compound, the “combination Emax” value [28] was 0.42, the “combination Emax” value [30] was 0.431 and the “combination Emax” value [31] was 0.302. The “combination Emax” value [32] was 0.619, the “combination Emax” value [33] was 0.626 and the “combination Emax” value [34] was 0.737. For the same compound, the “combination Emax” value [35] was 0.0812, the “combination Emax” value [36] was 0.687 and the “combination Emax” value [37] was 0.98. The “combination Emax” value [38] was 0.369, the “combination Emax” value [39] was 0.781 and the “combination Emax” value [40] was 0.227. For the same compound, the “combination Emax” value [41] was 0.584, the “combination Emax” value [42] was 0.611 and the “combination Emax” value [43] was 0.22. For the same compound, the “combination Emax” value [44] was 0.806, the “combination Emax” value [45] was 0.759 and the “combination Emax” value [46] was 0.683.

Work on C[C@@H]1COCCN1c1cc(C2([S@](C)(=N)=O)CC2)nc(-c2ccnc3[nH]ccc23)n1 [AZD6738] + Nc1ccn([C@@H]2O[C@H](CO)[C@@H](O)C2(F)F)c(=O)n1 [Gemcitabine] (first compound max 10 µM, 7x7, partner max 0.3 µM) yielded a Bliss excess [1] of 0.014, a Bliss excess [2] of 0.0769 and a Bliss excess [3] of 0.0282. The Bliss excess [4] was -0.0407, the Bliss excess [5] was 0.0348 and the Bliss excess [6] was 0.0098. It also gave a Bliss excess [7] of 0.0043, a Bliss excess [8] of 0.0524 and a Bliss excess [9] of 0.0221. It also gave a Bliss excess [10] of 0.104, a Bliss excess [11] of 0.153 and a Bliss excess [12] of -0.0077. The Bliss excess [13] was 0.0064, the Bliss excess [14] was 0.0734 and the Bliss excess [15] was 0.0296. For the same compound, the Bliss excess [16] was 0.0144, the Bliss excess [17] was 0.0623 and the Bliss excess [18] was -0.0094. For the same compound, the Bliss excess [19] was 0.0615, the Bliss excess [20] was 0.0778 and the Bliss excess [21] was 0.186. The Bliss excess [22] was 0.0762, the Bliss excess [23] was 0.0144 and the “combination Emax” value [24] was 0.993. The “combination Emax” value [25] was 0.655, the “combination Emax” value [26] was 0.897 and the “combination Emax” value [27] was 0.743. The “combination Emax” value [28] was 0.63, the “combination Emax” value [29] was 1 and the “combination Emax” value [31] was 0.583. The “combination Emax” value [32] was 0.92, the “combination Emax” value [33] was 0.705 and the “combination Emax” value [34] was 1. The “combination Emax” value [35] was 0.0714, the “combination Emax” value [36] was 0.994 and the “combination Emax” value [37] was 1. For the same compound, the “combination Emax” value [38] was 0.725, the “combination Emax” value [40] was 0.557 and the “combination Emax” value [41] was 0.833. For the same compound, the “combination Emax” value [42] was 0.87, the “combination Emax” value [43] was 0.716 and the “combination Emax” value [44] was 0.954. For the same compound, the “combination Emax” value [45] was 0.991 and the “combination Emax” value [46] was 0.779.
